Like-named read-outs stand apart in the source and are kept apart here.
Key:
hFKBP12 = hFKBP12 (Homo sapiens, UniProt P62942); test: protease-coupled PPIase assay, hFKBP12; assay type: biochemical; conditions: 20 nM hFKBP12, substrate Suc-Ala-Phe-Pro-Phe-pNA, chymotrypsin, pH 7.8, 6° C.; read-out: IC50 class, Target T-2 (hFKBP12)
EcParvulin = EcParvulin (Escherichia coli, UniProt P0A9L5); test: protease-coupled PPIase assay, EcParvulin; assay type: biochemical
hCyp18 = hCyp18 (Homo sapiens, UniProt P62937); test: protease-coupled PPIase assay, hCyp18; assay type: biochemical; conditions: 10 nM hCyp18, substrate Suc-Ala-Phe-Pro-Phe-pNA, chymotrypsin, pH 7.8, 6° C.; read-out: IC50 class, Target T-3 (hCyp18)
LpCyp18 = LpCyp18 (Legionella pneumophila, UniProt Q5ZRZ4); test: biochemical; conditions: IC50 class, Target T-4 (LpCyp18)
hPin1 = hPin1 (Homo sapiens, UniProt Q13526); test: protease-coupled PPIase assay, hPin1; assay type: biochemical; conditions: 6 nM hPin1, substrate Ac-Ala-Ala-Ser(PO3H2)-Pro-Arg-pNA, trypsin, pH 7.8, 6° C.; read-out: IC50 class, Target T-1 (hPin1)
Papain = molecular target: T1, Papain (Carica papaya, UniProt P00784); test: papain assay; assay type: biochemical; conditions: 16 μg/ml papain, 2 mM Bz-DL-Arg-pNA, pH 6.5, 30° C., 30 min incubation; read-out: IC50 class, Target T-6 (Papain)
T1 sequence (P00784 134-345): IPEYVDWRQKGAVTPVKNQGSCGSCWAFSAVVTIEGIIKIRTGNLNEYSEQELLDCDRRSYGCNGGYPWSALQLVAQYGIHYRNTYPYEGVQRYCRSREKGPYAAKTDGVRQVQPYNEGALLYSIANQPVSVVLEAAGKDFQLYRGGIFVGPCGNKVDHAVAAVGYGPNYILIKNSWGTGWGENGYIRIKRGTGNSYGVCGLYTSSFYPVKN
Method: In order to investigate the impact of some of the inventive compounds on the activity of key proteases the following assay was performed: Protease activities were measured spectrophotometrically at 30° C. according to Schomburg and Salzmann (Schomburg, B.; Salzmann M. GBF: Enzyme Handbook. Springer Verlag, Berlin Heidelberg, 1991) and Bergmeyer et al. (Bergmeyer, H. U.; Bergmeyer, J.; Graβl, M. Methods of Enzymatic Analysis, Vol. V Enzymes 3: Peptides, Proteinases and Their Inhibitors. pp 55-371, VCH, Weinheim, 1988). The release of 4-nitroaniline was determined at 390 nm with a Spectramax Plus UV/Vis spectrophotometer (Molecular Devices). The cathepsin B assay was performed in a reaction mixture containing 0.2 μg/ml cathepsin B, 2 mM Z-Arg-Arg-pNA in 88 mM KH2PO4, 12 mM Na2HPO4, 1.33 mM EDTA, 0.03% Brij 35 (pH 5.8). The trypsin assay was carried out in a reaction mixture containing 0.1 μg/ml trypsin and 120 μM Ac-Ala-Ala-Ser(PO3H2)-Pro-Arg-pNA in 35 mM HEPES (pH 7.8) and the papain assay in a mixture consisting of 16 μg/ml papain and 2 mM Bz-DL-Arg-pNA in 10 mM Na2HPO4, 2 mM L-Cys, 5 mM EDTA (pH 6.5). In general, reactions were started by addition of peptide substrate after a 30 min incubation of 1-100 μM effector with given concentrations of enzyme.

[1] = WST-1 cytotoxicity assay, HL-60; assay type: cell-based; conditions: human, HL-60 cells (acute myeloid leukemia); WST-1, 48 h incubation; read-out: EC50 class, cytotoxic effect, CL-1 (HL-60)
Method: For this cytotoxic evaluation of the compounds the commercial available WST-1 assay (Roche) was used according to the manufacturer's instructions. The assay is based on the cleavage of the tetrazolium salt WST-1 by mitochondrial dehydrogenases found in viable cells. In general compounds were added to cells cultured in 96-well plates at 37° C. After 48 h of incubation 10 μl of WST-1 solution was added. The formazan dye was analyzed with an ELISA plate reader at (450 vs. 620) nm. CL-1: human acute myeloid leukemia, HL-60 CL-2: human cervix carcinoma, HeLa CL-3: human prostate carcinoma, PC-3 CL-4: human colon adenocarcinoma, Caco-2 CL-5: human breast adenocarcinoma, MCF-7

[2] = 20 nM EcParvulin, substrate Suc-Ala-Phe-Pro-Phe-pNA, chymotrypsin, pH 7.8, 6° C., read-out: IC50 class, Target T-5 (EcParv)

LpCyp18, sequence (Q5ZRZ4 1-164): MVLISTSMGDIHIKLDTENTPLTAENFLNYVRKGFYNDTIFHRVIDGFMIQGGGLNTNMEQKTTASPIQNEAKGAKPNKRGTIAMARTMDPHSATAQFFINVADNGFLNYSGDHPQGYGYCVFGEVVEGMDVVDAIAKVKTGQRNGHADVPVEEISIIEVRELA
hPin1, sequence (Q13526 whole entry): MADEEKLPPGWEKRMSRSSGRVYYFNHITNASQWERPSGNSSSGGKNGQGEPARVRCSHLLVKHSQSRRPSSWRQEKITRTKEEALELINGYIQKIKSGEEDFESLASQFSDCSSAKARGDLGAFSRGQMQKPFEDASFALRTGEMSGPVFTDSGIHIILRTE
hCyp18, sequence (P62937 whole entry): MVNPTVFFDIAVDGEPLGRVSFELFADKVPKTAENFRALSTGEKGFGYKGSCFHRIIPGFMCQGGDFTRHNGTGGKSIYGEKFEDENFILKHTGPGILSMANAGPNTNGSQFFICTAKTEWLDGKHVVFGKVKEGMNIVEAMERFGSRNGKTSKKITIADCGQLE
hFKBP12, sequence (P62942 whole entry): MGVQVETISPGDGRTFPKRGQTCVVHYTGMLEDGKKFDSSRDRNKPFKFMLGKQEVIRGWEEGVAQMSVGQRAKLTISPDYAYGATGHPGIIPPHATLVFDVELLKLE
EcParvulin, sequence (P0A9L5 whole entry): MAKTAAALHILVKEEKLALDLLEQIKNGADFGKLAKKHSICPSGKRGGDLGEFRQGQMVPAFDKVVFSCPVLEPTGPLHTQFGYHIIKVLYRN

Row | Compound | IC50 (hFKBP12) | IC50 (EcParvulin; [2]) | IC50 (hCyp18) | IC50 (LpCyp18) | IC50 (hPin1) | IC50 (Papain) | IC50 (EcParvulin) | EC50 at 48 h [1]
1 | O=C(NCc1ccccc1)Nc1cc(Cl)c(O)c(Cl)c1 [Compound 700] | > 100 µM | 10 to 50 µM | > 100 µM | > 100 µM | < 1 µM |  |  | 
2 | Cc1c(Cl)cc(NCc2ccccc2Sc2ccc(Cl)cc2)c(O)c1Cl [Compound 371] | > 100 µM |  | 10 to 50 µM | > 100 µM | < 1 µM | > 100 µM | 10 to 50 µM | 
3 | CC(C)(C)NC(=O)Nc1cc(NC(=O)NCCc2ccccc2)cc(Cl)c1O [Compound 622] |  |  |  |  | < 1 µM |  |  | 
4 | O=C(Cc1ccc2c(c1)OCO2)Nc1cc(Cl)c(O)c(Cl)c1 [Compound 1295] | > 100 µM | 1 to 10 µM | > 100 µM | > 100 µM | 1 to 10 µM |  |  | 
5 | Oc1c(Cl)cccc1NCc1ccccc1Sc1ccc(Cl)cc1 [Compound 343] | > 100 µM |  | 10 to 50 µM | > 100 µM | 1 to 10 µM | > 100 µM | > 100 µM | 
6 | Oc1c(Cl)cc(-c2nc3ccccc3s2)cc1NC(=S)NCc1ccccc1 [Compound 637] |  |  |  |  | 1 to 10 µM |  |  | 
7 | CC(C)(C)CC(C)(C)NC(=O)Nc1cc(Br)cc(F)c1O [Compound 126] |  |  |  |  | < 1 µM |  |  | 
8 | O=C(Cc1ccccc1[N+](=O)[O-])Nc1cc(Cl)c(O)c(Cl)c1 [Compound 1294] | > 100 µM | 1 to 10 µM | > 100 µM | > 100 µM | < 1 µM |  |  | 
9 | O=C(Nc1cc(Cl)c(O)c(Cl)c1)NC12CC3CC(CC(C3)C1)C2 [Compound 719] | > 100 µM |  | 50 to 100 µM | 10 to 50 µM | < 1 µM |  |  | 
10 | O=C(Nc1cc(Cl)c(O)c(Cl)c1)c1ccccc1 [Compound 1298] | > 100 µM | 10 to 50 µM | > 100 µM | > 100 µM | < 1 µM |  |  | 
11 | CC(C)(C)NC(=O)Nc1cc(NC(=O)NC2CCCCC2)cc(Cl)c1O [Compound 605] | > 100 µM | 1 to 10 µM | 10 to 50 µM | > 100 µM | < 1 µM |  |  | 
12 | Oc1c(Cl)cc(Cl)cc1NCc1ccco1 [Compound 647] | > 100 µM | > 100 µM | > 100 µM | > 100 µM | 1 to 10 µM |  |  | 
13 | O=C(NCCc1ccccc1)Nc1cc(Cl)c(O)c(NCc2ccccc2Sc2ccc(Cl)cc2)c1 [Compound 610] |  |  |  |  | < 1 µM |  |  | 
14 | Oc1ccc(NCc2ccccc2Sc2ccc(Cl)cc2)c(O)c1 [Compound 672] |  |  | 1 to 10 µM | 10 to 50 µM |  |  |  | 
15 | Cc1cccc(C)c1NC(=O)Nc1cc(Cl)c(O)c(Cl)c1 [Compound 716] | > 100 µM |  | > 100 µM | > 100 µM | 1 to 10 µM | > 100 µM | 10 to 50 µM | 
16 | O=C(CCc1ccccc1)Nc1cc(Cl)c(O)c(Cl)c1 [Compound 1293] | > 100 µM | 10 to 50 µM | > 100 µM | > 100 µM | 1 to 10 µM |  |  | 
17 | Cc1c(Cl)cc(NC(=O)Nc2ccccc2)c(O)c1Cl [Compound 120] | 50 to 100 µM |  | 10 to 50 µM | > 100 µM | 10 to 50 µM |  |  | 
18 | Oc1c(F)cc(Br)cc1NCc1ccccc1Sc1ccc(Cl)cc1 [Compound 385] |  |  |  |  |  | > 100 µM |  | 
19 | Cc1c(Cl)cc(NCc2cccc(Oc3ccc(Cl)cc3)c2)c(O)c1Cl [Compound 498] |  |  |  |  |  | > 100 µM |  | 
20 | Oc1c(Cl)cc(Cl)cc1NCc1cccc(Oc2ccc(Cl)cc2)c1 [Compound 482] | > 100 µM | > 100 µM | 10 to 50 µM | > 100 µM | 1 to 10 µM |  |  | 
21 | O=C(Nc1cc(Br)cc(F)c1O)NC12CC3CC(CC(C3)C1)C2 [Compound 142] |  |  |  |  | < 1 µM |  |  | 

Row | Compound | IC50 (hFKBP12) | IC50 (EcParvulin; [2]) | IC50 (hCyp18) | IC50 (LpCyp18) | IC50 (hPin1) | IC50 (Papain) | IC50 (EcParvulin) | EC50 at 48 h [1]
22 | CC(C)(C)NC(=O)Nc1cc(-c2nc3ccccc3s2)cc(Cl)c1O [Compound 636] |  |  |  |  | < 1 µM |  |  | 
23 | Cc1c(Cl)cc(NCc2cccc(Oc3ccc(C(C)(C)C)cc3)c2)c(O)c1Cl [Compound 499] |  |  |  |  |  | > 100 µM |  | 
24 | CC(C)(C)NC(=O)Nc1cc(Cl)cc(Cl)c1O [Compound 31] |  |  |  |  | < 1 µM |  |  | 
25 | CCc1c(Cl)cc(NCc2ccccc2Sc2ccc(Cl)cc2)c(O)c1Cl [Compound 441] | > 100 µM |  | 10 to 50 µM | > 100 µM | 1 to 10 µM | > 100 µM | > 100 µM | 
26 | Cc1c(Cl)cc(NC(=S)Nc2ccccc2C(F)(F)F)c(O)c1Cl [Compound 266] | > 100 µM | 1 to 10 µM | > 100 µM | > 100 µM | < 1 µM |  |  | 
27 | O=C(Nc1cc(Cl)c(O)c(Cl)c1)c1ccc2ccccc2c1 [Compound 1297] | > 100 µM | 10 to 50 µM | > 100 µM | > 100 µM | < 1 µM |  |  | 50 to 100 µM
28 | CCCCCNC(=O)Nc1ccc(C)cc1O [Compound 643] | > 100 µM |  | > 100 µM | > 100 µM | 10 to 50 µM | > 100 µM | > 100 µM | 
29 | CCOC(=O)C(Cc1ccccc1)NC(=O)Nc1cc(Cl)c(C)c(Cl)c1O (centres unmarked) [Compound 593] |  |  |  |  | 1 to 10 µM |  |  | 
30 | CCCCCCCCS(=O)(=O)Nc1cc(Cl)c(C)c(Cl)c1O [Compound 563] | > 100 µM |  | > 100 µM | > 100 µM | 1 to 10 µM | > 100 µM | > 100 µM | 
31 | Cc1c(Cl)cc(NCc2c(F)cccc2Cl)c(O)c1Cl [Compound 512] | > 100 µM | 10 to 50 µM | 50 to 100 µM | > 100 µM | 10 to 50 µM |  |  | 
32 | Oc1c(Cl)cc(NC(=S)Nc2ccccc2C(F)(F)F)cc1Cl [Compound 894] | > 100 µM | 1 to 10 µM | > 100 µM | > 100 µM | < 1 µM |  |  | 
33 | O=[N+]([O-])c1ccc(Sc2ccccc2CNc2ccc(F)c(F)c2O)cc1 [Compound 400] |  |  |  |  | < 1 µM |  |  | 
34 | O=C(Nc1cc(Cl)c(O)c(Cl)c1)c1ccco1 [Compound 1299] | > 100 µM | 10 to 50 µM | < 1 µM | > 100 µM | < 1 µM |  |  | 
35 | Cc1c(Cl)cc(NCc2ccccc2)c(O)c1Cl [Compound 655] | > 100 µM | 10 to 50 µM | > 100 µM | > 100 µM | 10 to 50 µM |  |  | 
36 | O=C(Nc1cc(Cl)c(O)c(Cl)c1)NC1CCCCC1 [Compound 710] | > 100 µM |  | > 100 µM | > 100 µM | < 1 µM | > 100 µM | > 100 µM | 
37 | Cc1c(Cl)cc(NC(=O)NC23CC4CC(CC(C4)C2)C3)c(O)c1Cl [Compound 118] | 50 to 100 µM |  | 10 to 50 µM | 10 to 50 µM | 1 to 10 µM | > 100 µM | 1 to 10 µM | 
38 | Cc1c(Cl)cc(NC(=O)NCCc2nc3ccccc3[nH]2)c(O)c1Cl [Compound 656] |  |  |  |  | < 1 µM |  |  | 
39 | CC(C)(C)NC(=O)Nc1cc(Br)cc(F)c1O [Compound 127] |  |  |  |  | 1 to 10 µM |  |  | 
40 | Oc1c(Cl)cc(-c2nc3ccccc3s2)cc1NC(=S)NCCc1ccccc1 [Compound 638] |  |  |  |  | 1 to 10 µM |  |  | 
41 | Cc1c(Cl)cc(NC(=O)c2ccc(-c3ccccc3)cc2)c(O)c1Cl [Compound 644] |  |  |  |  |  | > 100 µM |  | 
42 | Cc1c(Cl)cc(NC(=S)NC(C)(C)CC(C)(C)C)c(O)c1Cl [Compound 257] |  |  |  |  | < 1 µM |  |  | 

— patent US20110065760A1, “COMPOUNDS FOR THE INHIBITION OF ROTAMASES AND USE THEREOF” (Jerini AG, priority 2002, published 2011)
